In experiment [1] the target is recombinant human kinase, MNK1 (Homo sapiens, UniProt Q9BUB5). Nature of the experiment: MNK1 substrate phosphorylation assay. The experiment is classed as biochemical.
Experiment [2] has as its target recombinant human kinase, MNK2 (Homo sapiens, UniProt Q9HBH9). Briefly: MNK2 substrate phosphorylation assay. Format: biochemical.
Experiment [3] deals with eIF4E phosphorylation at Serine 209 in the human embryonic kidney (HEK) 293 cell line. Briefly: Inhibition of eIF4E phosphorylation in HEK293 cells (phospho-specific antibody, fluorescent plate reader). Format: cell-based. The note with it: HEK293, 2 h, eIF4E phosphorylation at Serine 209, HEK293 cells, 2 hours exposure. The protocol:
The ability of MNK inhibitors described herein to inhibit eIF4E phosphorylation at Serine 209 in the human embryonic kidney (HEK) 293 cell line was tested by exposing the cells to compound for 2 hours and then measuring eIF4E phosphorylation with a phosphorylation-specific antibody in a fluorescent plate reader. These experiments were done with HEK-293 cells plated on 96 well plates. Following treatment, cells were fixed with ice cold methanol for 10 min and then washed in 1× phosphate buffered saline (PBS) and the permeabilized with 0.02% Triton X-100 in 10% normal goat serum made up in PBS. Primary antibody was applied overnight at a concentration dilution of 1:2000 (p-eIF4E antibody from Cell Signaling ab76256). Following washing, cells were then exposed to secondary antibody conjugated to alexa-fluor 488 and then visualized on a Syngergy HTX plate reader. Fluorescence for p-eIF4E was measured and normalized to total DAPI fluorescence to determine the percentage of eIF4E phosphorylation in each well. Data were plotted in Graphpad Prism V8 to determine concentration-response effects and calculate IC50 values.

Experiment [4] deals with WT mice, dural IL-6. Briefly: Dural IL-6-induced acute facial hypersensitivity and grimace in mice. As to conditions: female and male WT mice; 10 mg/kg oral gavage prior to dural IL-6 (0.1 ng); compared to the vehicle group. The experiment is classed as in vivo, mouse. The text has this:
Female and male MNK1 KO mice were a gift of the Sonenberg laboratory at McGill University and bred at the University of Texas at Dallas (UTD) to generate experimental animals (Ueda T, et al., MNK2 and MNK1 are essential for constitutive and inducible phosphorylation of eukaryotic initiation factor 4E but not for cell growth or development. Mol Cell Biol. August 2004). Genotype was confirmed at weaning using DNA from ear clips. Experimental C57BL6/J wild-type (WT) animals were obtained from an internally maintained C57BL/6 J colony at the University of Texas at Dallas. For pharmacological studies, female and male ICR (CD-1) mice aged 6-8 weeks (˜25-30 g) were outbred and purchased from Envigo. All mice were housed in groups of four animals per cage on a 12-hour light-dark cycle and had access to food and water ad libitum. Upon arrival to the animal care facility, animals were allowed a minimum of 72 hours to acclimate to their new environment before being handled for experiments. All experiments were performed between the hours of 9:00 AM and 5:00 PM. All procedures were conducted with prior approval of the Institutional Animal Care and Use Committee at the University of Texas at Dallas.
For dural injections, human recombinant interleukin-6 (IL-6) protein (R&D Systems) stock solution ([…]) was prepared in sterile 0.1% BSA and diluted to 1 ng/ml in synthetic interstitial fluid (SIF) consisting of 135 mM NaCl, 5 mM KCl, 10 mM HEPES, 2 mM CaCl2), 10 mM glucose, 1 mM MgCl2 (pH 7.4, 310 mOsm). Sodium nitroprusside (SNP) (Sigma-Aldrich) was prepared fresh in sterile phosphate buffered saline (PBS) at the time of use and was kept away from light. To test for the presence of hyperalgesic priming, mice were given a 150 μL IP injection of 0.1 mg/kg of SNP or a 5 μL dural injection of SIF solution that was brought to a pH of 7.0, as previously described (Avona A., et al., Repetitive stress in mice causes migraine-like behaviors and CGRP-dependent hyperalgesic priming to a migraine trigger. Pain. (2020); Burgos-Vega C. C. et al., Non-invasive dural stimulation in mice: A novel preclinical model of migraine. Cephalalgia. (2019)). […] MNK inhibitors were given orally to WT mice at 10 mg/kg approximately 1 hr prior to dural IL-6 or dural pH 7.0.
Mouse dural injections were performed as previously described (Burgos-Vega C. C. et al., Non-invasive dural stimulation in mice: A novel preclinical model of migraine. Cephalalgia. (2019)). Mice were anesthetized under isoflurane for <2 min with <2.5-3% isoflurane via a chamber and given a 5 μL injection via a modified internal cannula (Invivo1, part #8IC313ISPCXC, Internal Cannula, standard, 28 gauge, fit to 0.5 mm). […]

Experiment [5] concerns WT mice, dural pH 7.0 after dural IL-6. Briefly: Hyperalgesic priming to dural pH 7.0 after dural IL-6 in mice. Format: in vivo, mouse. The note with it: female and male WT mice. The text has this:
Female and male MNK1 KO mice were a gift of the Sonenberg laboratory at McGill University and bred at the University of Texas at Dallas (UTD) to generate experimental animals (Ueda T, et al., MNK2 and MNK1 are essential for constitutive and inducible phosphorylation of eukaryotic initiation factor 4E but not for cell growth or development. Mol Cell Biol. August 2004). Genotype was confirmed at weaning using DNA from ear clips. Experimental C57BL6/J wild-type (WT) animals were obtained from an internally maintained C57BL/6 J colony at the University of Texas at Dallas. For pharmacological studies, female and male ICR (CD-1) mice aged 6-8 weeks (˜25-30 g) were outbred and purchased from Envigo. All mice were housed in groups of four animals per cage on a 12-hour light-dark cycle and had access to food and water ad libitum. Upon arrival to the animal care facility, animals were allowed a minimum of 72 hours to acclimate to their new environment before being handled for experiments. All experiments were performed between the hours of 9:00 AM and 5:00 PM. All procedures were conducted with prior approval of the Institutional Animal Care and Use Committee at the University of Texas at Dallas. […]

Chain of recombinant human kinase, MNK1 (Q9BUB5 whole entry): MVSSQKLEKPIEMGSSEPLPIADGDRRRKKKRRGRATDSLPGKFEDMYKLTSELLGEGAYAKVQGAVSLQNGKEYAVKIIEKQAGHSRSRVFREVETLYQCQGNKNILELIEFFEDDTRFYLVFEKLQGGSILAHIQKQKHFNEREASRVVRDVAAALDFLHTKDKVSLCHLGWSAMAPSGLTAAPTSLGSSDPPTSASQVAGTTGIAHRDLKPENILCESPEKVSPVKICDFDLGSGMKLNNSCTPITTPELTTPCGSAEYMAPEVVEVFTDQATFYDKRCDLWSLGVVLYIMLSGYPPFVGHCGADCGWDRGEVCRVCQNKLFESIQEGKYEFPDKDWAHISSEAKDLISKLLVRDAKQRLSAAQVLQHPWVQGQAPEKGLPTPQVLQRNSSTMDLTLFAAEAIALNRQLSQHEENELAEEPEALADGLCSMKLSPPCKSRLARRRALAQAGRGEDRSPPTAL
Chain of recombinant human kinase, MNK2 (Q9HBH9 whole entry): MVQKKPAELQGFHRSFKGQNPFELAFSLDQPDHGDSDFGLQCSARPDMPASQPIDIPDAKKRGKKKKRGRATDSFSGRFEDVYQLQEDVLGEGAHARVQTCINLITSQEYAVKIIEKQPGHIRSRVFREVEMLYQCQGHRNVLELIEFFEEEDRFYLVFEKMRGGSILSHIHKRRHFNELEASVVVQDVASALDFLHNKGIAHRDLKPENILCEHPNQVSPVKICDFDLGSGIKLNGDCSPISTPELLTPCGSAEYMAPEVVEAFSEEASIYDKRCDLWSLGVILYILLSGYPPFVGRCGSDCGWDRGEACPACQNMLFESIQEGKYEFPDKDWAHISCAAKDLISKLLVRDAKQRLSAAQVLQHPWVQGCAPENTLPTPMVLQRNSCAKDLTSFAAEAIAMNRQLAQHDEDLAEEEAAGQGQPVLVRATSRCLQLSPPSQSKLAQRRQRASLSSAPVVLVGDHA

The IC50 is the concentration that inhibits the measured activity by half. For the molecule `Nc1cc(Nc2cc(Cl)c3n(c2=O)C2(CCC4(CC4)CC2)NC3=O)ncn1` [4ET-04-023], the IC50 in experiment [1] was 36.8 nM; in experiment [2], 1.86 nM; in experiment [3], 1.2 nM. The “dural IL-6 induced facial grimace measures (grimace score)” value in experiment [4] is “significantly attenuated”.
For `Cc1cc(Nc2cc(N)ncn2)c(=O)n2c1C(=O)NC21CCCC2(CC2)CC1` (racemic) [rac-4ET-01-027, 6″-((6-aminopyrimidin-4-yl)amino)-8″-methyl-2″H-dispiro[cyclopropane-1,1′-CYCLOHEPTANE-4′,3″-imidazo[1,5-a]pyridine]-1″,5″-dione], in experiment [4], the “dural IL-6 induced facial grimace measures (grimace score)” value is on record as “significantly attenuated”.
`Cc1cc(Nc2cc(N)ncn2)c(=O)n2c1C(=O)NC21CCCCC1` [eFT508, reference compound]: in experiment [4], the “dural IL-6 induced facial grimace measures (grimace score)” value was “significantly attenuated” and the “dural IL-6 induced facial hypersensitivity (periorbital von Frey)” value is given as “significantly attenuated”. Also, the “hyperalgesic priming to dural pH 7.0” value in experiment [5] (10 mg/kg oral gavage prior to dural IL-6, later tested with dural SIF pH 7.0) is on record as “did not prime to dural pH 7.0”. The “hyperalgesic priming to dural pH 7.0” value in experiment [5] (10 mg/kg oral gavage prior to dural pH 7.0, compared to the vehicle group) is on record as “did not prime to pH 7.0”.
In the case of `Cc1cc(Nc2cc(N)ncn2)c(=O)n2c1C(=O)NC21CCC2(CCC2)C1` (stereo not drawn) [4ET-01-015], the values for the IC50 in experiment [1], in experiment [2] and in experiment [3] were 30.9 nM, 2.6 nM and 3.9 nM, respectively.

The values above are taken from patent publication US20250205244A1, “METHODS OF TREATING MIGRAINE WITH MNK INHIBITORS” (4E Therapeutics, Inc., priority 2021, published 2025).
